Results on three compounds are retold here after PMC7707092, “Discovery and characterization of ORM‐11372, a novel inhibitor of the sodium‐calcium exchanger with positive inotropic activity” (British Journal of Pharmacology, 2020).

One series deals with T1, human NCX 1.1 (Homo sapiens, UniProt P32418).
T1 construct: expressed in transfected cells
As to the kind of experiment: Fluorescence screening assay for hNCX 1.1 inhibition (reverse mode, Sf9 cells). Format: cell-based. As to conditions: for IC50: Sf9 cells expressing human NCX1.1, reverse mode, fluorescence, n=3 assays. The method, then: Spodoptera frugiperda (Sf9; RRID:CVCL_0549) cells are widely used for the transient and stable expression of recombinant proteins. Here, Sf9 cells were stably transfected with human NCX 1.1 and maintained in spinner flasks with insect cell culture medium (TNM‐FH), supplemented with 10% FBS, antibiotic–antimycotic solution, and 50 μg·ml^−1 of blasticidin at 28°C in a non‐humidified, CO2‐free atmosphere. The Sf9 cell suspension was subcultured three times a week.
NCX reverse mode activity was stimulated via a 50% dilution of the extracellular Na^+ level using the internal pipettor of FLEXstation, a fluorescence imaging plate reader (Molecular Devices, USA), while simultaneously monitoring intracellular calcium levels. After dilution, the concentration of other ions remained the same, but Na^+ concentration was diluted to the half of original concentration of 172 to 86 mM. For Sf9 insect cells, normal extracellular Na^+ ion concentration is 172 mM. Typically, 50 μl of a solution containing 150,000–200,000 Sf9–NCX cells was loaded onto each well of a 96‐well plate. Cells were preincubated with the intracellular calcium dye Fluo‐4 and Fluo‐6, and the concentrations of the test compound (three replicates) were determined for about 1 h at room temperature before experimentation. The extracellular solution contained (in mM) 172 NaCl, 10 HEPES, 1 CaCl2, 1.2 MgCl2, 0.33 NaH2PO4, 5 glucose, and 5 probenecid. The pH was adjusted to 7.4 with NaOH. The extracellular Na^+ was diluted by the addition of a Na^+‐free extracellular solution (containing in mM: 147 N‐methyl‐D‐glucamine (NMDG), 10 HEPES, 1 CaCl2, 1.2 MgCl2, 0.33 NaH2PO4, and 5 glucose with the pH adjusted by HCl to 7.4)‐induced robust and reproducible elevation of intracellular calcium. The osmolarity of both solutions was adjusted to 340–355 mOsm in order to match the Sf9 cell media osmolarity. In each plate, the IC50 determination for each test compound was based on relative fluorescence changes in comparison with control and 5‐mM nickel acetate‐induced NCX inhibition.

A further series can be described thus: Solubility. It is filed as physicochemical.
The target in series [1] is T2, noradrenaline transporter (Rattus norvegicus, UniProt Q9WTR4).
T2 construct: [^3H]noradrenaline incorporated into rat hypothalamus synaptosomes; from tissue; host or cells: rat hypothalamus synaptosomes
As to the kind of experiment: [^3H]noradrenaline uptake into rat hypothalamus synaptosomes. It is filed as biochemical. The method, then: Radioligand binding assays were performed at Eurofins Cerep SA (Celle L'Evescault, France), for testing the inhibition capacity of ORM‐11372 (at 10 μM with two replicates), in over 75 targets. These included receptors (e.g., human A1, A2A, and A3 adenosine receptors; α1 and α2 adrenoceptors; human β1–β3 adrenergic receptors; human D1, D2S, D3, D4.4, and D5 dopamine receptors; EGF and VEGF receptors; human M1–M5 muscarinic ACh receptors; human 5‐HT1A, 5‐HT2A, 5‐HT2B, 5‐HT2C, 5‐HT4e, 5‐HT5A, 5‐HT6, and 5‐HT7 receptors), ion channels (5‐HT3, Ca^2+, ATP‐dependent potassium channel [KATP], voltage‐dependent potassium channel [KV], small‐conductance calcium‐dependent potassium channel [SKCa], Na^+, and Cl^−), and transporters (adenosine, noradrenaline, dopamine, and 5‐HT). Follow‐up functional studies (with five concentrations and two replicates) were performed for 5‐HT2A receptors and noradrenaline transporter. Agonism and antagonism at h5‐HT2A receptors was explored in recombinant HEK 293 cells and intracellular calcium changes were detected using fluorimetry. Noradrenaline uptake was measured by carrying out scintillation counting of [^3H]noradrenaline incorporated into rat hypothalamus synaptosomes.

Series [2] concerns human iPS cardiomyocyte action potentials. As to the kind of experiment: Action potentials in spontaneously beating hiPSC cardiomyocytes (Cor.4U). Format: cell-based. As to conditions: 0.1 or 0.3 μM. How it is done:
APs were recorded in spontaneously beating Cor.4U CMs in the current clamp using the perforated patch technique and voltage‐sensitive dye (di‐4‐ANEPPS), in a 96‐well plate format. The latter ratiometric optical measurements were performed on the CellOPTIQ platform at Clyde Biosciences (Newhouse, UK).
Effect of ORM-11372 (A: 0.1 µM; B: 0.3 µM) on human iPS cardiomyocyte action potentials. A left, Action potentials recorded in current-clamp at baseline (black trace), during exposure to ORM-11372 (red trace) and during wash off (grey trace). The dashed line denotes 0 mV. On the right is plotted, for the individual cardiomyocytes (n = 4), the action potential duration (APD) at 30, 50 and 90 % repolarisation in 0.1 µM ORM-11372 as the percentage of their baseline values. B, Action potentials and APDs recorded with voltage sensitive dye at baseline (black trace) and after 30 min treatment with either vehicle (0.1 % DMSO; blue trace and circles) or 0.3 µM ORM-11372 (red trace and squares). The APDs at 30, 50 and 90 % repolarisation […]
vehicle and ORM-11372 (*p<0.05 unpaired Student’s t-test).
(1 picture or pasted object on this page, not shown here)

In the next series the target is 5‐HT2B receptor (Homo sapiens, UniProt P41595). In words: 5‐HT2B agonist and antagonist assay, intracellular calcium in CHO–5‐HT2B cells. It is filed as cell-based. An excerpt: The hERG‐encoded voltage‐dependent potassium channel current (I hERG) cells to be studied were harvested with Detachin solution and either diluted with a volume of CHO cell serum‐free media (supplemented with 100 IU·ml^−1 of penicillin/streptomycin and 25‐mM HEPES) to obtain cells, for which the cell density was ~4 x10^6 cells·ml^−1, or plated on glass coverslips and used on the following 1–2 days. HEK 293 cells were transiently transfected using lipofectamine (Invitrogen, USA), with a human sodium voltage‐gated channel subunit 5 (hSCN5) A (transcript variant 2)‐containing plasmid, in Optimem medium. After a 5‐h incubation period, the transfection medium was replaced with the normal growth medium. The cells were harvested by trypsinization, centrifuged and resuspended in the appropriate extracellular solution for performing studies the next day. CHO–5‐HT2B cells were plated into 96‐well plates on the previous day, at a density of 4 x10^4 cells per well, with a modified version of the growth media.
Changes in the intracellular calcium concentration of CHO–5‐HT2B cells in the probenecid‐R inger were measured, using Fluo‐4 or calcium 3 dyes and the FLEXstation, at 37°C. […]

Each structure is given as a SMILES string. Converted amounts (≈) assume the structure as drawn. “And” between values parts separate entries of the source, which are not always exact repeats. Equal values may be shown once. Read-outs that look alike come from different tables or passages of the source.

5‐HT2B receptor, sequence (P41595 whole entry): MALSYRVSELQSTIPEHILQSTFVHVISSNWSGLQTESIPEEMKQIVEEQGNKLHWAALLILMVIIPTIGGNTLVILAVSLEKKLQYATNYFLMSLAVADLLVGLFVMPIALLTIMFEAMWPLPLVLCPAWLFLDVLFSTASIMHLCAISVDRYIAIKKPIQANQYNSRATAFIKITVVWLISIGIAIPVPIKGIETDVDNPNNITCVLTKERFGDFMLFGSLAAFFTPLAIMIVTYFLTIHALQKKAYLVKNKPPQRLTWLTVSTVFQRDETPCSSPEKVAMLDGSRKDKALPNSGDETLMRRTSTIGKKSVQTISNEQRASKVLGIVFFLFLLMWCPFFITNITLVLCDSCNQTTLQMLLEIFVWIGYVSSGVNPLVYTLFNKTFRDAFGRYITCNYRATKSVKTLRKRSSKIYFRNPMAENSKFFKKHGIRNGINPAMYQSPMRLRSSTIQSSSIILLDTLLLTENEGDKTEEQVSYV
T2 sequence (Q9WTR4 1-597): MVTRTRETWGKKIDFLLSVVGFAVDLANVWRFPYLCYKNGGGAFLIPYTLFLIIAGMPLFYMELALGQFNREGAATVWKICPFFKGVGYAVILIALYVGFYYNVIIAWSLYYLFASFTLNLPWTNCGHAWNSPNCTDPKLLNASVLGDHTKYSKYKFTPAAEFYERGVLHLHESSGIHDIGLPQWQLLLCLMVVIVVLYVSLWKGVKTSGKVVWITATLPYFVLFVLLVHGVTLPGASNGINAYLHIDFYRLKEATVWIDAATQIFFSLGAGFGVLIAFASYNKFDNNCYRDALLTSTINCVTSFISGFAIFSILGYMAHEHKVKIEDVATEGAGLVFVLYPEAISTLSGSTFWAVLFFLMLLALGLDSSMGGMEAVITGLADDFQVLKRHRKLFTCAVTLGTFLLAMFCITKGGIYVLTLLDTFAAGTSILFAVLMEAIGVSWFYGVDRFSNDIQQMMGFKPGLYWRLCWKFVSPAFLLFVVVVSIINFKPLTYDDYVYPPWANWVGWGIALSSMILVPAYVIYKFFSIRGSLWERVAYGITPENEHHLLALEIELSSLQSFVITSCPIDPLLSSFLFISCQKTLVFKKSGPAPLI

As to `O=C(CN1CCC(O)CC1)Nc1ccc(Oc2ccc3c(c2)CCC(c2ccccc2)O3)nc1` (stereo not shown) [ORM-10962], the half-maximal inhibitory concentration (IC50) against human NCX 1.1 was 0.197 µM. For the same compound, the Solubility class result in the series “Solubility” (pH 7.4 phosphate buffer) was “Moderate (moderate solubility between 10-100 µg/ml)”.
For `Nc1cccc(-c2ccc(CNc3ccc(F)cc3)o2)c1` [ORM‐11372], the half-maximal inhibitory concentration (IC50) in series [1] was 1.7 µM; at human NCX 1.1 it was 0.0062 µM and 0.006 µM. For the same compound, the “hiPSC‐CM APD” value in series [2] is on record as “significant shortening”. On human NCX 1.1, the “potency as NCX inhibitor relative to SEA0400” value is “more than 10 times”. In addition, the solubility is 5400 µg/mL (≈ 19.1 mM) in the series “Solubility” (5% glucose solution, saline or isotonic, 5% glucose used for in vivo dosing, read-out: Solubility in 5% glucose solution); 10 to 100 µg/mL (≈ 0.0354 to 0.354 mM) in the series “Solubility” (phosphate buffer, pH 7.4, aqueous buffer, pH 7.4 phosphate buffer, read-out: Solubility); 10 to 100 µg/mL (≈ 0.0354 to 0.354 mM) in the series “Solubility” (phosphate buffer, pH 7.4, aqueous buffer, pH 7.4 phosphate buffer, read-out: Solubility class); 5300 µg/mL (≈ 18.8 mM) in “Solubility” (saline, saline or isotonic, saline used for in vivo dosing, read-out: Solubility in saline). Further, the “agonist activity at 5‐HT2B receptors” value at 5‐HT2B receptor is reported as “no agonist activity”. Moreover, the inhibition at 10 µM at 5‐HT2B receptor (10 μM, evoked by 10‐nM 5‐HT, read-out: inhibition of 5‐HT2B receptor‐mediated increase in intracellular calcium) was 38%.
In turn, `CCOc1ccc(Oc2ccc(OCc3cc(F)ccc3F)cc2)c(N)c1` [SEA0400, reference compound] displayed a concentration for half-maximal inhibition (IC50) on human NCX 1.1 of 0.376 µM. Besides, in the series “Solubility” (pH 7.4 phosphate buffer), the Solubility class entry was “insoluble” and the solubility result was “less than 10 μg·ml^−1”. Further, the Solubility class result in the series “Solubility” (pH 7.4 phosphate buffer, listed as SEA 0400) is “Insoluble (insoluble less than 10 µg/ml)”.

Broadly, the IC50 is the midpoint of a concentration-inhibition curve. Low readings indicate inhibition by little substance, high ones a need for much substance. By solubility is commonly meant how much of the substance goes into solution per volume. What is called inhibition is the drop in the measured response relative to a control, in per cent.
